# Experiments:
# Test in all cases: relative viability (nuclei count vs DMSO), 5 days (fraction); higher = more cells survive
# Ibrutinib = compound: C=CC(=O)N1CCC[C@@H](n2nc(-c3ccc(Oc4ccccc4)cc3)c3c(N)ncnc32)C1 [Ibrutinib]
# Outline: (§1)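 Lung cancer cell lines received five library-drug doses (not always all listed) spaced by √10, pinned on vehicle-anchored 1536-well plates after an overnight stay at 37 °C. Five days later, with no medium change, nuclei were Hoechst-stained, imaged at 4× and counted with MetaXpress. Viability is treated-well nuclei relative to vehicle-well nuclei, as a median across plates. Passing plates had control CV below 25% and at least one doubling.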
# PAC-1 = compound: C=CCc1cccc(/C=N/NC(=O)CN2CCN(Cc3ccccc3)CC2)c1O [PAC-1]
# Outline: as §1
# Ibrutinib + Tozasertib = compound: C=CC(=O)N1CCC[C@@H](n2nc(-c3ccc(Oc4ccccc4)cc3)c3c(N)ncnc32)C1 [Ibrutinib] + Cc1cc(Nc2cc(N3CCN(C)CC3)nc(Sc3ccc(NC(=O)C4CC4)cc3)n2)n[nH]1 [Tozasertib] (partner 0.1 µM)
# Outline: (§2)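 Cells from lung cancer lines were seeded into 1536-well plates and, one day later, dosed by pin tool. Treatments were either a single drug or a fixed dose of an anchor drug with five library-drug doses (not always all listed) in √10 steps. After 5 days, nuclei were stained in a one-step fixation (final 0.05% Triton X-100, 1% formaldehyde, 1 ug/ml Hoechst) and counted on 4× images, and relative viability is the treated-to-vehicle nuclei ratio, as the median of duplicate plates.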
# Ibrutinib + Olaparib = compound: C=CC(=O)N1CCC[C@@H](n2nc(-c3ccc(Oc4ccccc4)cc3)c3c(N)ncnc32)C1 [Ibrutinib] + O=C(c1cc(Cc2n[nH]c(=O)c3ccccc23)ccc1F)N1CCN(C(=O)C2CC2)CC1 [Olaparib] (partner 8 µM)
# Outline: as §2
Cell Line,relative viability (Ibrutinib; 0.005 µM),relative viability (Ibrutinib; 0.01581 µM),relative viability (Ibrutinib; 0.05 µM),relative viability (Ibrutinib; 0.1581 µM),relative viability (Ibrutinib; 0.5 µM),relative viability (PAC-1; 0.02 µM),relative viability (PAC-1; 0.06325 µM),relative viability (PAC-1; 0.2 µM),relative viability (PAC-1; 2 µM),relative viability (Ibrutinib + Tozasertib; first compound 0.005 µM),relative viability (Ibrutinib + Tozasertib; first compound 0.01581 µM),relative viability (Ibrutinib + Tozasertib; first compound 0.05 µM),relative viability (Ibrutinib + Tozasertib; first compound 0.1581 µM),relative viability (Ibrutinib + Tozasertib; first compound 0.5 µM),relative viability (Ibrutinib + Olaparib; first compound 0.005 µM),relative viability (Ibrutinib + Olaparib; first compound 0.01581 µM),relative viability (Ibrutinib + Olaparib; first compound 0.05 µM),relative viability (Ibrutinib + Olaparib; first compound 0.1581 µM),relative viability (Ibrutinib + Olaparib; first compound 0.5 µM)
NCI-H2009,1.14,0.971,0.978,0.962,1.09,0.978,1.03,0.94,0.99,0.737,0.778,0.77,0.788,0.831,0.754,0.671,0.771,0.802,0.738
NCI-H2023,0.89,0.849,0.891,1.03,0.943,0.973,0.919,0.905,1.01,0.388,0.303,0.324,0.394,0.324,0.492,0.528,0.457,0.516,0.542
NCI-H2085,0.997,0.974,0.902,0.882,0.905,1.05,1.02,0.989,0.98,0.853,0.628,0.623,0.855,0.697,0.764,0.735,0.736,0.749,0.748
NCI-H2087,1.13,0.931,1.19,,0.99,0.872,1.06,0.929,1.04,0.303,0.206,0.262,,0.233,0.602,0.715,0.691,,0.724
NCI-H2126,0.68,0.969,0.972,0.9,0.887,0.938,0.948,1.02,1.06,0.701,0.811,0.792,0.818,0.755,0.879,0.899,0.88,0.905,0.747
NCI-H2170,0.678,0.85,0.803,0.939,0.462,1.02,0.978,0.99,0.962,0.676,0.748,0.519,0.63,0.23,0.568,0.502,0.433,0.607,0.156
NCI-H2228,1.01,0.752,1.1,0.872,0.868,0.98,1.15,0.924,1.09,0.282,,0.253,0.307,0.187,0.774,0.601,0.776,1.08,0.715
NCI-H2342,0.655,0.875,0.888,0.842,0.823,1.09,0.91,0.872,1.15,0.499,0.493,0.577,0.53,0.396,0.422,0.413,0.438,0.457,0.268
NCI-H2347,1.01,1.06,1.02,0.812,1.04,1.01,1.02,0.979,1.05,,0.643,0.739,0.532,0.548,0.659,0.512,0.626,0.619,0.536

# Source: the supplement of paper PMC10307832
